Results on eleven compounds are retold here after US20250034139A1, “AMINE COMPOUNDS HAVING ANTI-INFLAMMATORY, ANTIFUNGAL, ANTIPARASITIC, AND ANTICANCER ACTIVITY” (PHARMA CINQ, LLC, priority 2013, published 2025).

≈ marks a conversion by molar mass, not a printed value.

The test system of test [1] is 4T1 murine breast cancer cells. Description: Example S: in vitro anticancer screen, 4T1 cells, Wst1. Format: cell-based, mouse. As to conditions: Mus musculus, 4T1, 18 h, 18 hr, Wst1; for viability at 1 µM: read-out: 4T1 1 μM, percent of cancer cell survival relative to vehicle treated cells; for viability at 5 µM: read-out: 4T1 5 μM, percent of cancer cell survival relative to vehicle treated cells. Summed up: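 4T1 cells seeded at 1×10^4/well were exposed to compound at 1 μM or 5 μM for 18 hr after plating. Wst1 tetrazolium dye was then added for about 2 hr and absorbance read at 450 nm (reference 630 nm). Values are percent survival relative to vehicle-treated cells.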

In test [2] the test system is PC3 human prostate cancer cells. The test can be described thus: Example S: in vitro anticancer screen, PC-3 cells, Wst1. Format: cell-based. As to conditions: Homo sapiens, PC-3, approximately 20 hours, Wst1, read-out: PC-3, percent of cancer cell survival relative to vehicle treated cells. Summed up: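 PC-3 cells, 2×10^4 cells/well, exposed ~20 h to vehicle or compound at 0.4, 0.5 or 2.5 μM as specified per compound. Wst1 dye added for 2 h; absorbance 450 nm (reference 630 nm), triplicates. Values are percent cell survival versus vehicle-treated cells.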

A further test deals with THP-1 cells. The test can be described thus: Example D: LPS-triggered THP-1 cell death assay, acute/5-hour and chronic/48-hour. Format: cell-based, Human. As to conditions: for Viable cell percent change, Chronic/48-hour, Mean: 10 ng/ml LPS, 0.1 μM test compound; for activity relative to AC in the LPS-triggered THP-1 cell death assay, in words: 0.1 μM, 5-hour and 48-hour time points. On the procedure: Compounds of the invention were tested at 0.1 μM versus AC in the LPS-triggered THP-1 cell death assay. Both acute/5-hour and chronic/48-hour phases of cell death were assessed. Compounds were screened in batches with DMSO as the negative control and AC as the high activity control.

For another test, the system named is Trichophyton rubrum. The test can be described thus: Example J: Trichophyton rubrum growth inhibition, scoring by eye. Format: cell-based. As to conditions: Trichophyton rubrum, 144 h; 6 days at 30° C., tested 6 to 40 μM; read-out: MIC, μM (maximum inhibition concentration, scoring by eye). Summed up: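 Filtered T. rubrum suspension from PDA plates (grown 4 days, 30 °C) treated with diluted compounds in triplicate, incubated 6 days at 30 °C. Plates imaged; MIC scored by eye.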

In the case of `CCCCCCOc1ccc(CNc2ccnc3ccccc23)cc1` [AA, N-[4-(Hexyloxy)benzyl]quinolin-4-amine], in test [1], the viability at 1 µM turned out to be 69.1% and the viability at 5 µM was 31.2%. The viability at 1.5 µM in test [2] (1.5 μM) came to 82.6%.
Turning to `c1ccc(Oc2cccc(CNc3ccnc4ccccc34)c2)cc1` [AF, N-(3-Phenoxybenzyl)quinolin-4-amine], in the test on THP-1 cells, the “Viable cell percent change, Chronic/48-hour, Mean” value (shortened to “Viable cell percent change”) stood at 13.79% and the “activity relative to AC in the LPS-triggered THP-1 cell death assay, in words” value (from here on “activity relative to AC”) was “more active than AC at the chronic/48-hour time point”. Further, in the test on Trichophyton rubrum, the MIC was > 40 µM. Besides, in test [1], the viability at 1 µM came out at 24.7% and the viability at 5 µM amounted to 25.6%. Further, in test [2], the viability at 0.4 µM stood at 19.1%.
For `CCCCCCOc1cccc(CNc2ncnc3ccccc23)c1` [AK, N-[3-(Hexyloxy)benzyl]quinazolin-4-amine], the “activity relative to AC” value with THP-1 cells was “equivalent activity to AC at both the 5-hour and 48-hour time points”. The MIC in the test on Trichophyton rubrum worked out at 18 µM (≈ 6.04 µg/mL).
For the compound `CCCCCCOCCCCCCCCn1cnc2cnccc21` [AS, 1-[8-(Hexyloxy)octyl]-1H-imidazo[4,5-c]pyridine], in the test with THP-1 cells, the “Viable cell percent change” value is recorded as 3.86%. In addition, the MIC in the test with Trichophyton rubrum was found to be 25 µM (≈ 8.29 µg/mL). Besides, in test [1], the viability at 1 µM is 94.6% and the viability at 5 µM is 23.1%. Also, in test [2], the viability at 2.5 µM is 31.1%.
Regarding `CCCCOCCCCCCCCCCn1cnc2cnccc21` [AT, 1-(10-Butoxydecyl)-1H-imidazo[4,5-c]pyridine], in the test on THP-1 cells, the “Viable cell percent change” value was 30.34%. The MIC with Trichophyton rubrum is 6 µM (≈ 1.99 µg/mL). Further, in test [1], the viability at 1 µM was 31.7% and the viability at 5 µM turned out to be 18.7%. Moreover, in test [2], the viability at 0.4 µM worked out at 34.6%.
Consider `CCCCCCOCCCCCCCCNc1ccncn1` [AU, N-[8-(Hexyloxy)octyl]pyrimidin-4-amine], for which the “Viable cell percent change” value with THP-1 cells is reported as 16.86%. Further, the MIC in the test with Trichophyton rubrum turned out to be 12 µM (≈ 3.69 µg/mL). For the same compound, in test [1], the viability at 1 µM was 93% and the viability at 5 µM was 23.2%. The viability at 2.5 µM in test [2] is 32.4%.
For `CCCCCCOCCCCCCCCNc1cc(C)nc2ccccc12` [AV, N-[8-(Hexyloxy)octyl]-2-methylquinolin-4-amine], in that order: 38.76%, 25 µM (≈ 9.26 µg/mL), 136%, 30% and 38.2%.
For `CCCCCCOc1cccc(OCCCNc2ccnc3ccccc23)c1` [AZ, N-{3-[3-(Hexyloxy)phenoxy]propyl}quinolin-4-amine], the “Viable cell percent change” value in the test with THP-1 cells came out at 50.12%. Besides, the MIC with Trichophyton rubrum stood at 18 µM (≈ 6.81 µg/mL). In addition, in test [1], the viability at 1 µM amounted to 52.2% and the viability at 5 µM turned out to be 29.1%. In test [2], the viability at 0.4 µM is 95.4%.
The matching figures for `Cc1cccc(OCCCCCCCCNc2ccnc3ccccc23)c1` [BE, N-[8-(m-Tolyloxy)octyl]quinolin-4-amine]: 33.86%, 12 µM (≈ 4.35 µg/mL), 23.1%, 18.7% and 99.1%.
Turning to `CCCCCCOc1ccc(CNc2ccnc3ccccc23)cc1F` [BK, N-[3-Fluoro-4-(hexyloxy)benzyl]quinolin-4-amine], in the test with THP-1 cells, the “Viable cell percent change” value turned out to be 43.69%; the “activity relative to AC” value is “equivalent activity to AC at both the 5-hour and 48-hour time points”. Besides, the viability at 0.4 µM in test [2] was determined as 29.2%.
On to `c1ccc(Oc2cccc(CNc3ncnc4ccccc34)c2)cc1` [BM, N-(3-Phenoxybenzyl)quinazolin-4-amine], for which, in the test on THP-1 cells, the “Viable cell percent change” value worked out at 29.97% and the “activity relative to AC” value is recorded as “more active than AC at the chronic/48-hour time point”. Besides, in the test on Trichophyton rubrum, the MIC came out at 18 µM (≈ 5.89 µg/mL).
